Laboratory results taken from patent US20240316078A1, “Treatment of Neuropathic Sensitization Disorders” (IVIEW Therapeutics, Inc., priority 2021, published 2024).
Several values for one entry are separate records, joined by “and”; a condition that tells them apart may be missing. Identical values can stand only once.

Columns and labels:
[1] = system: patients with DE-associated NOP; assay: Ocular Pain Assessment Survey (OPAS) in pilot study of topical cryosim-3; type: in vivo, human; details: C3 2 mg/mL eyelid wipe 4 times/day, mean ± SD, 15 patients; for OPAS Tearing (0-1): baseline 0.36 ± 0.29; for OPAS Redness (0-1): baseline 0.41 ± 0.32; for OPAS Chemical stimuli (0-1): baseline 0.47 ± 0.35; for OPAS Burning sensation (0-1): baseline 0.57 ± 0.37; for OPAS Mechanical stimuli (0-1): baseline 0.63 ± 0.29; for OPAS Sensitivity to light (0-1): baseline 0.76 ± 0.24; for OPAS Aggravating factors (total 0-2): baseline 1.11 ± 0.49; for OPAS Associated factors (total 0-4): baseline 2.09 ± 0.76; for OPAS General activity (walking, etc.) (0-10): baseline 4.00 ± 3.18; for OPAS Sleep (0-10): baseline 4.27 ± 3.81; for OPAS Enjoying life/relations with other people (0-10): baseline 5.07 ± 2.84; for OPAS Mood (0-10): baseline 5.40 ± 2.77; for OPAS Driving and/or watching TV (0-10): baseline 6.80 ± 2.31; for OPAS Non-eye pain (0-20): baseline 7.67 ± 6.22; for OPAS Reading and/or computer use (0-10): baseline 7.79 ± 1.76; for OPAS Eye pain intensity (0-60): baseline 30.60 ± 12.84; for OPAS Quality of life (total 0-60): baseline 33.53 ± 14.24
Procedure: (§1) This prospective non-randomized pilot study was conducted in accordance with the tenets of the Declaration of Helsinki. Ethical approval was obtained from the Chonnam National University Hospital Institutional Review Board (CNUH-2018-274). Informed consent was obtained from all included patients. The sample size was calculated using the G*Power software (version 3.1.9.4; Heinrich-Heine University, Germany) with a level of α=0.05 and a power of 95% to detect a 2-point difference in pain scales. Accordingly, a total sample size of 13 patients was found sufficient.
(§2) Patients with DE accompanied by NOP features, who underwent evaluation between January and December in 2018, were enrolled. DE was diagnosed based on OSDI score ≥13 and tear break-up time (TBUT) ≤7 s. The inclusion criteria were as follows: (1) chronic ocular pain which was unresponsive to conventional topical agents (i.e. lubricants, anti-inflammatories, secretagogues, etc.) for >3 months; (2) discordance between the painful DE symptoms and signs accompanying with specific descriptors, including burning or stinging; and (3) a Wong-Baker FACES Pain Rating Scale (WBFPS) score […].
(§3) The patients were treated with add-on C3 while undergoing conventional topical treatment. C3 samples (2 mg/mL) were diluted in purified water, soaked in gauze, and packaged using automated equipment. The patients applied topical C3 by wiping the gauze on the closed eyelid margin, 4 times/day for 1 month (FIG. 1).
The WBFPS was chosen to screen the pain severity in the patients with DE. The patients chose the face that best depicted the pain they were experiencing. At baseline, 1 week, and 1 month after treatment, the patients also completed the OPAS which is a validated questionnaire for neuropathic pain as previously described. The questions were divided into sections for analysis: questions 4-9, pertained to eye pain intensity (0 to 60); questions 10-11, pertained to non-eye pain (0 to 20); questions 13-19 (0-10, total score 0 to 60), assessed the QoL (reading and/or computer use, driving and/or watching TV, general activity, mood, sleep, and enjoying life/relations with other people); questions 20-21 (each score 0-1, total score 0-2), assessed aggravating factors (mechanical and chemical stimuli); and questions 22-25 (each score 0-1, total score 0-4), assessed associated factors (redness; burning; sensitivity to light; and tearing). The section on symptomatic relief of the OPAS was excluded, and only questions 4-25 were analyzed. The questions were divided into 5 sections as follows: eye pain intensity, non-eye pain, QoL, aggravating factors, and associated factors.
(§4) Statistical analyses were conducted using PASW Statistics for Windows, Version 18.0 (SPSS Inc., Chicago, IL, USA). The normality of distribution was assessed using the Shapiro-Wilk test. The Wilcoxon signed-rank test and repeated-measures analysis of variance with Bonferroni's post-hoc test were used for comparing parameters before and after treatment. A P<0.05 was considered statistically significant.

[2] = system: patients with DE-associated NOP; assay: Clinical dry eye parameters (OSDI, TBUT, Schirmer test, corneal staining) in pilot study; type: in vivo, human; details: C3 2 mg/mL eyelid wipe 4 times/day, 1-month, mean ± SD
From the text: as §2, §3
The OSDI questionnaire which ranged from 0 to 100 was used to quantify the vision-related QoL. TBUT (tear breakup time), the time interval between the last complete blink and the first appearance of disruption of the tear film, was measured thrice and the mean value was used for analysis. Corneal staining scores were assessed using the area-density index, by multiplying the area and density score. The Schirmer test score represented the length of wetting, and was measured using a calibrated sterile strip placed at the lateral canthus for 5 min under topical anesthesia (0.5% proparacaine). Only the score of the right eye was assessed.
as §4

[3] = system: patients with DE-associated NOP; assay: Wong-Baker FACES Pain Rating Scale (WBFPS) in enrolled patients; type: in vivo, human; details: individual patients No. 1-15
From the text: as §2
The patients were treated with add-on C3 while undergoing conventional topical treatment. […]
The WBFPS was chosen to screen the pain severity in the patients with DE. […] The questions were divided into sections for analysis: questions 4-9, pertained to eye pain intensity (0 to 60); questions 10-11, pertained to non-eye pain (0 to 20); questions 13-19 (0-10, total score 0 to 60), assessed the QoL (reading and/or computer use, driving and/or watching TV, general activity, mood, sleep, and enjoying life/relations with other people); questions 20-21 (each score 0-1, total score 0-2), assessed aggravating factors (mechanical and chemical stimuli); and questions 22-25 (each score 0-1, total score 0-4), assessed associated factors (redness; burning; sensitivity to light; and tearing). […]

[4] = system: patients with DE accompanying NOP features; assay: Pilot study: discontinuation, safety and onset of effect; type: in vivo, human
Procedure: as §1, §3
This study enrolled 20 patients with DE accompanying NOP features. Five patients (25.0%) discontinued the treatment because of drug ineffectiveness or intolerance. The remaining 15 patients (75.0%) were included in the analysis. Their mean age was 59.5±13.0 years, and nine patients (60.0%) were women.

[5] = system: patients with mild DE; details: cited from earlier work
[6] = topical C3 in DE, previous study

CCCCCCCCCP(=O)(C(C)C)C(C)C [cryosim-3, 1-[Diisopropyl-phosphinoyl]-nonane]
OPAS Tearing (0-1) ([1]; 1-month): 0.21 ± 0.27 | OPAS Redness (0-1) ([1]; 1-month): 0.39 ± 0.30 | OPAS Chemical stimuli (0-1) ([1]; 1-month): 0.41 ± 0.32 | OPAS Burning sensation (0-1) ([1]; 1-month): 0.29 ± 0.29 | OPAS Mechanical stimuli (0-1) ([1]; 1-month): 0.47 ± 0.26 | OPAS Sensitivity to light (0-1) ([1]; 1-month): 0.59 ± 0.28 | OPAS Aggravating factors (total 0-2) ([1]; 1-month): 0.88 ± 0.57 | OPAS Associated factors (total 0-4) ([1]; 1-month): 1.58 ± 0.93 | OPAS General activity (walking, etc.) (0-10) ([1]; 1-month): 3.20 ± 2.86 | OPAS Sleep (0-10) ([1]; 1-month): 2.73 ± 3.81 | OPAS Enjoying life/relations with other people (0-10) ([1]; 1-month): 4.27 ± 3.03 | OPAS Mood (0-10) ([1]; 1-month): 4.40 ± 2.47 | OPAS Driving and/or watching TV (0-10) ([1]; 1-month): 5.60 ± 2.90 | OPAS Non-eye pain (0-20) ([1]; 1-month): 5.47 ± 5.62 | OPAS Reading and/or computer use (0-10) ([1]; 1-month): 6.93 ± 2.59 | OPAS Eye pain intensity (0-60) ([1]; 1-month): 21.53 ± 10.84 | OPAS Quality of life (total 0-60) ([1]; 1-month): 27.17 ± 16.06 | OPAS Tearing (0-1) ([1]; 1-week): 0.17 ± 0.18 | OPAS Redness (0-1) ([1]; 1-week): 0.41 ± 0.30 | OPAS Chemical stimuli (0-1) ([1]; 1-week): 0.41 ± 0.35 | OPAS Burning sensation (0-1) ([1]; 1-week): 0.40 ± 0.33 | OPAS Mechanical stimuli (0-1) ([1]; 1-week): 0.47 ± 0.25 | OPAS Sensitivity to light (0-1) ([1]; 1-week): 0.57 ± 0.26 | OPAS Aggravating factors (total 0-2) ([1]; 1-week): 0.87 ± 0.56 | OPAS Associated factors (total 0-4) ([1]; 1-week): 1.55 ± 0.85 | OPAS General activity (walking, etc.) (0-10) ([1]; 1-week): 3.27 ± 2.71 | OPAS Sleep (0-10) ([1]; 1-week): 2.93 ± 3.67 | OPAS Enjoying life/relations with other people (0-10) ([1]; 1-week): 4.33 ± 2.97 | OPAS Mood (0-10) ([1]; 1-week): 4.53 ± 2.50 | OPAS Driving and/or watching TV (0-10) ([1]; 1-week): 5.27 ± 2.52 | OPAS Non-eye pain (0-20) ([1]; 1-week): 6.73 ± 6.18 | OPAS Reading and/or computer use (0-10) ([1]; 1-week): 7.14 ± 2.48 | OPAS Eye pain intensity (0-60) ([1]; 1-week): 26.47 ± 11.45 | OPAS Quality of life (total 0-60) ([1]; 1-week): 27.60 ± 15.49 | Schirmer test score ([2]; 5 min under topical anesthesia, baseline 7.07 ± 2.76): 8.47 ± 2.80 mm | Corneal staining score (0-9) ([2]; baseline 0.60 ± 0.91): 0.13 ± 0.35 | Tear break-up time ([2]; baseline 4.13 ± 0.83): 4.00 ± 0.85 s | Ocular surface disease index ([2]; scale 0 to 100, baseline 57.5 ± 13.8): 40.2 ± 12.6 | WBFPS score ([3]; 1 month of add-on C3 2 mg/mL eyelid wipe 4 times/day): 2 and 5 (4×) and 6 (2×) and 3 and 4 (3×) and 1 (3×) and 7 | WBFPS score ([3]; 1 week of add-on C3 2 mg/mL eyelid wipe 4 times/day): 1 (4×) and 7 (3×) and 6 (5×) and 3 and 5 (2×) | patients who discontinued the treatment because of drug ineffectiveness or intolerance ([4]; five of 20 enrolled patients): 25.0% | time to improvement of ocular pain after C3 treatment ([4]; patients unresponsive to conventional treatment (122.7 days)): ≤ 1 week | safety and effectiveness of topical application to the eyelid in relieving NOP ([4]; patients with DE): safe and effective | effect on basal tear secretion [5, 6]: increasing basal tear secretion | effect on ocular discomfort [5, 6]: alleviating ocular discomfort without any complications | duration of painless cooling sensation after wiping ([5]; wiping of C3): approximately 40 minutes
